The values that follow come from patent US20230312564A1, “AROMATIC RING-LACTAM COMPOUND, PREPARATION METHOD THEREFOR AND USE THEREOF” (SHANGHAI RINGENE BIOPHARMA CO., LTD., priority 2020, published 2023).

The structures appear in SMILES notation. Where two headings read alike, the source gives them in different places.

The target in one data set is T1, ERK1/2 kinase.
T1 construct: fused on or other part: Carna's ERK products carry a GST tag by vendor knowledge
Description: ERK1/2 kinase (Carna) inhibitory activity, Caliper mobility shift. The note with it: for IC50: read-out: ERK½ IC50. The format is biochemical. The method in brief:
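Compounds tested from 10 μM top concentration, 3-fold dilutions to 10 points, in duplicate, in 1× kinase buffer; Caliper mobility-shift readout.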

The next data set has as its system Colo-205 cells. As to the kind of experiment: Colo-205 tumor cell proliferation, CCK-8, 72 hours. The format is cell-based. Particulars: for cell proliferation inhibitory activity (in words): Colo-205; for IC50: Homo sapiens, COLO 205, 72 hours, CCK-8, read-out: Colo-205 IC50.
The target of the next data set is T2, CYP1A2 (Homo sapiens, UniProt P05177).
T2 sequence (P05177 1-516): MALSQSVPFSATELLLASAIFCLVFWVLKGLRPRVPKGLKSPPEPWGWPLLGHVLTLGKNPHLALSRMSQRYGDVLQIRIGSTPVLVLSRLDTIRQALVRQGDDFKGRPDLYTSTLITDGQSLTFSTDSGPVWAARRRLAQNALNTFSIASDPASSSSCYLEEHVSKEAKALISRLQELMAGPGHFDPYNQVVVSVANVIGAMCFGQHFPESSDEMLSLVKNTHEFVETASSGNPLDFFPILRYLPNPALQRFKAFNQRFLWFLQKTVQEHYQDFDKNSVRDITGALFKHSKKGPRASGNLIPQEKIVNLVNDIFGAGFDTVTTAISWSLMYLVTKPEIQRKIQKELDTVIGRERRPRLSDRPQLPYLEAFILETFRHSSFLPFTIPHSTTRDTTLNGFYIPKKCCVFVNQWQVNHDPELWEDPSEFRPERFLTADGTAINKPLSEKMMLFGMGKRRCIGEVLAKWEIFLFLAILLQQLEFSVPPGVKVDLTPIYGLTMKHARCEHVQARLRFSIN
As to the kind of experiment: Direct inhibition test (DI test) in human liver microsomes, CYP1A2. The method, then:
(§1) (2) Direct inhibition test (DI test): A system containing 100 μL of human liver microsomes (final concentration of 0.2 mg/mL) was subjected to a direct inhibition incubation, and the system contained NADPH (final concentration of 1 mM), 10 μM compound, positive inhibitor cocktail (10 μM ketoconazole, 10 μM quinidine, 100 μM sulfaphenazole, 10 μM α-naphthoflavone, 1,000 μM tranylcypromine), negative control (BPS of 0.1% DMSO), and mixed probe substrates (10 μM midazolam, 100 μM testosterone, 10 μM dextromethorphan, […], 100 μM phenacetin, 100 μM mephenytoin). After 20 minutes of incubation, the reaction was stopped. The relative activity of the enzyme was calculated by measuring the relative production of metabolites.

In the next data set the target is CYP2C8 (Homo sapiens, UniProt P11712). Description: Direct inhibition test (DI test) in human liver microsomes, CYP2C8. The format is in vitro ADME.
Sequence of CYP2C8 (P11712 whole entry): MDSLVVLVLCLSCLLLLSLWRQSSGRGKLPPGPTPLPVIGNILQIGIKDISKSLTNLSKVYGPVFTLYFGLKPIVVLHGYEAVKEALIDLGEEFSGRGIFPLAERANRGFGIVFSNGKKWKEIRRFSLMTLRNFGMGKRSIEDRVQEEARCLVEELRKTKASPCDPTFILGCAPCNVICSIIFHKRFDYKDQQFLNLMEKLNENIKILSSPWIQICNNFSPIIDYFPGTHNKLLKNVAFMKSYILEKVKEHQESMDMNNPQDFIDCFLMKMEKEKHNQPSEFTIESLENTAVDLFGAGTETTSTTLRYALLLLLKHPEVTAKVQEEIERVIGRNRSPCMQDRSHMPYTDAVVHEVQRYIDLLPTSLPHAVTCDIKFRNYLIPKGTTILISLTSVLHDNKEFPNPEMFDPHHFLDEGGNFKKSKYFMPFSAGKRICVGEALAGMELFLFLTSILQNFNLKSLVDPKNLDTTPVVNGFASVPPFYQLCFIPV
In the next data set the target is T3, CYP2C19 (Homo sapiens, UniProt P33261).
T3 construct: A system containing 100 μL of human liver microsomes; from tissue; host or cells: human liver microsomes
T3 sequence (P33261 whole entry): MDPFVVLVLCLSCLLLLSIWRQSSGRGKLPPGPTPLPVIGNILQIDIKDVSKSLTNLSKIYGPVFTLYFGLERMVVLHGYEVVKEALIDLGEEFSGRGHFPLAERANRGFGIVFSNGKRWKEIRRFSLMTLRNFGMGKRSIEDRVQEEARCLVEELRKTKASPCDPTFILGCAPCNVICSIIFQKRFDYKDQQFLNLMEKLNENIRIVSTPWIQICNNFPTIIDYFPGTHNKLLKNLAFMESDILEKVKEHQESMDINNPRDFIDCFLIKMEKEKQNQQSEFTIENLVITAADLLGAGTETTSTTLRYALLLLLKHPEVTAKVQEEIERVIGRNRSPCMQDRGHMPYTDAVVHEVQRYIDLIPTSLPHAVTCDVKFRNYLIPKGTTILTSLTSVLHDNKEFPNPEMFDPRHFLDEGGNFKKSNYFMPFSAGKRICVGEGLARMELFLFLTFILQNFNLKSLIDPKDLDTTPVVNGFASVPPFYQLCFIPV
Description: Direct inhibition test (DI test) in human liver microsomes, CYP2C19. The format is in vitro ADME. The protocol:
as §1

The target in the next data set is T4, CYP3A4 (Homo sapiens, UniProt P08684).
T4 construct: A system containing 100 μL of human liver microsomes; from tissue; host or cells: human liver microsomes
T4 sequence (P08684 whole entry): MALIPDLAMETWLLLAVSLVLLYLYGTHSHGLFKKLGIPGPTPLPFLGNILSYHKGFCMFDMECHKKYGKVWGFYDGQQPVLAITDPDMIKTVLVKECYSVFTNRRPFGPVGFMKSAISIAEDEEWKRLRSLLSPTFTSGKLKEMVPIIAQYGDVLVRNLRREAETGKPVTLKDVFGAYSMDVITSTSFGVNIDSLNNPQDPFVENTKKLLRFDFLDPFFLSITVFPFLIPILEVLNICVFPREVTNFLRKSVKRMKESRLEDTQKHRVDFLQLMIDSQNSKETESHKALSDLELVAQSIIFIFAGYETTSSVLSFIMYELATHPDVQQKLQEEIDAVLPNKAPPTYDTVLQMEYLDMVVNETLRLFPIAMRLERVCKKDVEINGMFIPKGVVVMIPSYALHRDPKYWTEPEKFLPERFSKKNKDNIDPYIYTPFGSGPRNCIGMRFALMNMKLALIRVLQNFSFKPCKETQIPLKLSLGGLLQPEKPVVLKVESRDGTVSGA
As to the kind of experiment: Direct inhibition test (DI test) in human liver microsomes, CYP3A4. The format is in vitro ADME. The method, then: as §1

The target of a further data set is T5, CYP2D6 (Homo sapiens, UniProt P10635).
T5 construct: A system containing 100 μL of human liver microsomes; from tissue; host or cells: human liver microsomes
T5 sequence (P10635 whole entry): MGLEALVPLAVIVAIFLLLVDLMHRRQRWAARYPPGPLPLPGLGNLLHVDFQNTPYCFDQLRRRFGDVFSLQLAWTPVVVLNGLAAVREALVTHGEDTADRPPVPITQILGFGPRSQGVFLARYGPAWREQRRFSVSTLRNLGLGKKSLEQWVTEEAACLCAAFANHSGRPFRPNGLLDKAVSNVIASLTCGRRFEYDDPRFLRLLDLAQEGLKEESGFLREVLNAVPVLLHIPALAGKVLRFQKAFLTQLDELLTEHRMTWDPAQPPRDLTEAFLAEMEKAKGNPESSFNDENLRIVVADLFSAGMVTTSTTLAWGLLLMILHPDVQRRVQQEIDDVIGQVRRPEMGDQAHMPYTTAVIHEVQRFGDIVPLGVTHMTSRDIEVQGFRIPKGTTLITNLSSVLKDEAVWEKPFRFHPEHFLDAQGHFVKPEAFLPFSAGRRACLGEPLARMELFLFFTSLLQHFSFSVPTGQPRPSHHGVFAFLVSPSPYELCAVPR
Description: Direct inhibition test (DI test) in human liver microsomes, CYP2D6. Type of data set: in vitro ADME. The method, then:
as §1

The nature of data set [1]: Liver microsomal metabolic stability, rat. Type of data set: in vitro ADME. The note with it: liver microsomes, 0.5 mg/mL microsomes, 1 μM compound, NADPH, read-out: Liver microsomal stability T1/2. The method, then:
(§2) The reaction was stopped with tinidazole-containing acetonitrile at 0 min, 5 min, 10 min and 30 min, respectively. After vortexing for 10 min and centrifuging at 15,000 rmp for 10 min, 50 μL of the supernatant was injected into a 96-well plate. The metabolic stability of the compound was calculated by determining the relative reduction of the drug, calculated as half-life T1/2.

Data set [2] in a line: Liver microsomal metabolic stability, dog. The format is in vitro ADME. Particulars: liver microsomes, 0.5 mg/mL microsomes, 1 μM compound, NADPH, read-out: Liver microsomal stability T1/2. The method, then: as §2
Data set [3] in a line: Liver microsomal metabolic stability, human. The format is in vitro ADME. The note with it: liver microsomes, 0.5 mg/mL microsomes, 1 μM compound, NADPH, read-out: Liver microsomal stability T1/2. The method, then: as §2
Data set [4] can be described thus: Liver microsomal metabolic stability, mouse. The format is in vitro ADME. The note with it: liver microsomes, 0.5 mg/mL microsomes, 1 μM compound, NADPH, read-out: Liver microsomal stability T1/2. The method, then: as §2
Data set [5] is described as follows: Liver microsomal stability, comparisons in words across species. The format is in vitro ADME. The note with it: mouse, rat and human; compared with comparative compound 5. The method, then:
as §2

Data set [6] can be described thus: In-vivo pharmacokinetic parameters in mice. Also on record: species or system Balb-c mice. The method in brief: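 Male SD rats or Balb-c mice were dosed intravenously at 1 mg/kg or orally at 5 mg/kg. Jugular-vein plasma was sampled up to 24 h and analysed by LC-MS/MS. Non-compartmental analysis gave AUC, MRT, Cmax, Tmax, T1/2, Vd and oral bioavailability (F).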

Data set [7] concerns Colo-205 transplanted tumor. As to the kind of experiment: Growth inhibition of nude mice Colo-205 transplanted tumor. The format is in vivo. Particulars: 50 mg/kg, qdx21, po. The method, then:
The tumor tissue in the vigorous growth phase was cut into about 1.5 mm^3 and inoculated subcutaneously in the right axilla of nude mice under sterile conditions. The diameter of subcutaneous transplanted tumors in nude mice was measured with a vernier caliper, and the mice were randomly divided into groups when the average tumor volume reached about 130 mm^3. The embodiment compounds (injection water containing 1% Tween 80 were configured to a desired concentration for later use) were orally administered daily at a given dose for three consecutive weeks, and the solvent control group was administered with the same amount of solvent. During the whole test, the diameter of transplanted tumor was measured twice a week, and the mice were weighed at the same time. The calculation formula of tumor volume (TV) is expressed as TV=1/2×a×b^2, wherein a and b represent length and width, respectively. The relative tumor volume (RTV) was calculated according to the measurement results, and the calculation formula is RTV=Vt/V0, wherein V0 is the tumor volume measured when administered in separate cages (i.e., d0), and Vt is the tumor volume at the time of each measurement.

In another data set the test system is p-ERK in MiaPaca-2. As to the kind of experiment: p-ERK feedback upregulation in MiaPaca-2 tumor cells. The note with it: acting on MiaPaca-2. The format is cell-based.
[8] abbreviates: male, Balb-c, mouse, plasma, IV, 1 mg/kg.
Setting [9] is: male, Balb-c, mouse, plasma, PO, 5 mg/kg.

Take `C[C@H](C(=O)N[C@H](CO)c1ccc(F)c(Cl)c1)N1Cc2ccc(-c3nc(NC4CCOCC4)ncc3F)c(F)c2C1=O` [Embodiment 48]: the IC50 at ERK1/2 kinase (numeric values) was less than 0.001 µM; in the data set with Colo-205 cells (numeric values) it was 0.0192 µM; against CYP1A2 it was greater than 10 µM; against CYP2C19 it was greater than 10 µM; against CYP3A4, greater than 10 µM; on CYP2D6 it was greater than 10 µM. Also, in the data set with Colo-205 cells, the “cell proliferation inhibitory activity (in words)” value is recorded as “strong cell proliferation inhibitory activity”. The compound also gave a concentration for half-maximal inhibition (IC50) at 20 min against CYP2C8 greater than 10 µM.

As for `[2H]C([2H])([2H])Oc1cc(F)cc([C@@H](CO)NC(=O)[C@@H](C)N2Cc3ccc(-c4nc(NC5CCOCC5)ncc4F)c(F)c3C2=O)c1` [Embodiment 49], in the data set with ERK1/2 kinase, the “enzyme inhibitory activity (in words)” value is listed as “extremely strong enzyme inhibitory activity”. Moreover, the 50% inhibitory concentration (IC50) on ERK1/2 kinase (numeric values) was less than 0.001 µM; with Colo-205 cells (numeric values), 0.0174 µM; against CYP1A2, greater than 10 µM; against CYP2C19 it was greater than 10 µM; against CYP3A4 it was greater than 10 µM; against CYP2D6 it was greater than 10 µM. In the data set with Colo-205 cells, the “cell proliferation inhibitory activity (in words)” value is reported as “strong cell proliferation inhibitory activity”. On CYP2C8, this compound showed an IC50 at 20 min greater than 10 µM.

In the case of `COc1cc(F)cc([C@@H](CO)NC(=O)[C@@H](C)N2Cc3ccc(-c4nc(NC5CCOCC5)ncc4Cl)nc3C2=O)c1` [Embodiment 18], the “enzyme inhibitory activity (in words)” value in the data set with ERK1/2 kinase is listed as “extremely strong enzyme inhibitory activity”. The concentration for half-maximal inhibition (IC50) on ERK1/2 kinase (numeric values) is 0.0008 µM; in the data set with Colo-205 cells (numeric values) it was 0.0333 µM; against CYP1A2, greater than 10 µM; against CYP2C19 it was greater than 10 µM; against CYP3A4, greater than 10 µM; against CYP2D6, greater than 10 µM. Moreover, the “cell proliferation inhibitory activity (in words)” value in the data set with Colo-205 cells is “strong cell proliferation inhibitory activity”. Moreover, the half-life at 1 μM in data set [1] was found to be 16 min; in data set [2], 32 min; in [3] it was 12 min; in [4], 32 min. The “stability in liver microsomes (in words)” value in data set [5] is “significantly improved”. Besides, the IC50 at 20 min on CYP2C8 is greater than 10 µM. The compound further registered a F in data set [6] (PO 5 mg/kg vs IV 1 mg/kg) of 25%. Further, the values for the area under the curve AUC(0-inf) in [6] (setting [8]) and in data set [6] (setting [9]) were 0.202 µM·h and 0.257 µM·h, respectively. The AUC(0-t) was determined as 0.198 µM·h in [6] (setting [8]) and 0.253 µM·h in data set [6] (setting [9]). In addition, the MRT inf in data set [6] (setting [8]) was 30 min. This compound displayed a clearance in data set [6] (setting [8]) of 144 mL/min/kg. Further, the results for the half-life in data set [6] (setting [8]) and in [6] (setting [9]) were 72 min and 42 min, respectively. Besides, in data set [6] (male, Balb-c, mouse, plasma, IV, 1 mg/kg, read-out: Vss), the Vd was 3.9 L/kg. This compound returned a Cmax in data set [6] (setting [9]) of 289 nM. Also, the Tmax in data set [6] (setting [9]) was 24 min.

In the case of `COc1cc(F)cc([C@@H](CO)NC(=O)[C@@H](C)N2Cc3ccc(-c4nc(NC5CCOC5)ncc4F)c(F)c3C2=O)c1` (some centres unmarked) [Embodiment 42], the half-maximal inhibitory concentration (IC50) is less than 0.001 µM on ERK1/2 kinase (numeric values); less than 0.1 µM with Colo-205 cells (class symbols); greater than 10 µM on CYP1A2; greater than 10 µM against CYP2C19; greater than 10 µM against CYP3A4; greater than 10 µM against CYP2D6. Moreover, the “cell proliferation inhibitory activity (in words)” value in the data set with Colo-205 cells is “strong cell proliferation inhibitory activity”. Moreover, at CYP2C8, the IC50 at 20 min was greater than 10 µM.

As for `C[C@H](C(=O)N[C@H](CO)c1cccc(F)c1)N1Cc2ccc(-c3nc(NC4CCOCC4)ncc3F)c(F)c2C1=O` [Embodiment 46], the IC50 at ERK1/2 kinase (numeric values) is less than 0.001 µM; in the data set on Colo-205 cells (numeric values) it was 0.0162 µM; on CYP1A2, greater than 10 µM; at CYP2C19, greater than 10 µM; against CYP3A4, greater than 10 µM; at CYP2D6 it was greater than 10 µM. On CYP2C8, this compound showed an IC50 at 20 min greater than 10 µM.

Consider `COc1cc(F)cc([C@@H](CO)NC(=O)[C@@H](C)N2Cc3ccc(-c4nc(NC5CCC(F)(F)CC5)ncc4F)c(F)c3C2=O)c1` [Embodiment 44], for which the IC50 at ERK1/2 kinase (class symbols) was less than 0.01 µM; with Colo-205 cells (numeric values), 0.0183 µM; on CYP1A2 it was greater than 10 µM; at CYP2C19 it was greater than 10 µM; at CYP3A4, greater than 10 µM; at CYP2D6, greater than 10 µM. For the same compound, in the data set with Colo-205 cells, the “cell proliferation inhibitory activity (in words)” value was “strong cell proliferation inhibitory activity”. In addition, the IC50 at 20 min at CYP2C8 was greater than 10 µM.

As for `CC(C)Nc1cc(-c2c[nH]c(C(=O)N[C@H](CO)c3cccc(Cl)c3)c2)c(Cl)cn1` [BVD523, reference compound], the IC50 is less than 0.01 µM at ERK1/2 kinase (class symbols) and 0.28 µM in the data set on Colo-205 cells (numeric values). In addition, the T/C in data set [7] is recorded as 48.5%. Besides, the “Initial weight (D0)” value in [7] (D0) amounted to 19.8 g. Moreover, the “Terminal weight (D21)” value in [7] (D21) is reported as 19.0 g. The compound also came in with an Initial tumor volume in data set [7] (initial) of 97 ± 14 mm^3. The compound also returned a Terminal tumor volume in data set [7] (terminal) of 471 ± 198 mm^3. The “p-ERK upregulation (in words)” value with p-ERK in MiaPaca-2 is “will cause p-ERK feedback upregulation”.
